In US20160361418A1, “COMPOSITION FOR PREVENTION OR TREATMENT OF TREATMENT-RESISTANT CANCER” (priority 2014, published 2016):
“Also recorded” adds a separate entry of the source.

What was measured:
157NS cells = experiment: Photosensitivity of cancer stem cells to ALA-PDT (WST-8 cell viability); assay type: cell-based, human; conditions: sphere type relative to non-sphere type
Method: (§1) Specifically, three types of brain tumor glioma stem cell lines (MD13, MD30, and 157NS cells), which had been isolated and established from brain tumor patients, were used, and an experiment was carried out to verify the photosensitivity of these cells to ALA-PDT. In preparation for the experiment, these cells were first cultured in a D-MEM/F12 culture solution containing 10% fetal calf serum (FCS) and in a D-MEM/F12 culture solution containing no FCS (containing L-glutamine, heparin, B27, EGF, and bFGF), and the shapes of the cells were then examined.
(§2) Brain tumor stem cells (MD13, MD30, and 157NS cells), which had grown to a sphere type and a non-sphere type, were treated with trypsin, and thereafter, the resulting cells were each incubated at a density of 1.0×10^6 cells/ml, together with 0.3 mM ALA, for 4 hours. Thereafter, a 405-nm laser light was applied to the cells. After the cells had been cultured for 7 days, the cell viability was measured according to a viable cell count measurement method (WST-8 assay) using water soluble tetrazolium salts as a coloring reagent.
(§3) The sphere type cells (FIG. 2B) cultured in the D-MEM/F12 culture solution containing no FCS (containing L-glutamine, heparin, B27, EGF, and bFGF) had higher sensitivity to ALA-PDT, than the non-sphere type cells (FIG. 2A) cultured in the D-MEM/F12 culture solution containing 10% FCS.

MD13 cells = experiment: as above; assay type: cell-based, human; conditions: sphere type relative to non-sphere type
Method: as §1, §2, §3

MD30 cells = experiment: as above; assay type: cell-based, human; conditions: sphere type relative to non-sphere type
Method: as §1, §2, §3

[1] = tested on: Brain tumor stem cells (MD13, MD30, and 157NS cells); experiment: Photosensitivity of cancer stem cells to ALA-PDT, summary over the three lines; assay type: cell-based, human; conditions: 0.3 mM ALA 4 hours; 405-nm laser light
Method: as §1, §2, §3

[2] = tested on: brain tumor cell line A172; experiment: Photosensitivity of brain tumor cells to ALA-PDT (WST-8 cell viability); assay type: cell-based; conditions: 0.3 mM ALA 4 hours, 405-nm laser light, WST-8 after 7 days
Method: (§4) The brain tumor cell line A172 (purchased from American Type Culture Collection) was cultured in a D-MEM/F12 culture solution containing no FCS (containing L-glutamine, heparin, B27, EGF, and bFGF). As a result, the cells formed a sphere similar to stem cells. […] The cells, which had grown to a sphere type and a non-sphere type, were treated with trypsin. Subsequently, the cells were each incubated at a density of 1.0×10^6 cells/ml, together with 0.3 mM ALA, for 4 hours, and thereafter, a 405-nm laser light was applied to the cells. After the cells had been further cultured for 7 days, the cell viability was measured by a WST-8 assay in the same manner as that of Example 2.

[3] = tested on: brain tumor cell line A172; experiment: Photosensitivity of brain tumor cells to ALA-PDT (colony formation assay); assay type: cell-based; conditions: 0.3 mM ALA 4 hours, 405-nm laser light, colonies after 14 days
Method: as §4
Moreover, 500 cells were collected from A172 cells, on which ALA-PDT had been performed, and the cells were then seeded on a D-MEM agar medium containing 10% FCS and an antibiotic, followed by performing a culture for 14 days. Thereafter, the cultured cells were treated with Trypan blue containing 10% formalin, so that the cell colonies were immobilized and stained. The number of colonies each consisting of 50 or more cells was counted using a stereoscopic microscope.
In the aforementioned WST-8 assay, the cell viability can be measured based on a reduction reaction using mitochondrial NAD(P)H. On the other hand, in the colony formation assay, the proliferation ability of cells can be measured. […]

[4] = tested on: Human glioblastoma astrocytoma U87MG cells; experiment: ALA-PDT with Lapatinib, cell viability by MTT method; assay type: cell-based; conditions: LED 635 nm 12 J/cm^2
Method: Human glioblastoma astrocytoma U87MG cells (10^6 cells) were suspended in DMEM (2% FBS), and thereafter, 10 mM ALA alone was added to the suspension, or 10 mM ALA was combined with Lapatinib in a concentration from 1 nM to 300 μM, and the combination was then added to the suspension. The obtained mixture was cultured at 37° C. for 4 hours. Thereafter, the cells were irradiated with LED having a peak at 635 nm (12 J/cm^2), and the cell viability was then measured by an MTT method. It is to be noted that the MTT method has the same measurement principle as that of the WST-8 assay, and that this is a colorimetric determination method for measuring an enzymatic activity of reducing MTT to a formazan pigment (violet).

HeLa cells = experiment: Multiple-dose ALA-PDT on HeLa cells and therapy-resistant HeLa cells (WST8 cell viability); assay type: cell-based, human
Method: HeLa cells (human-derived uterine cervix cancer cell line; 1×10^5 cells) were seeded on a 60-mm dish, and then cultured for 24 hours. Thereafter, an anticancer agent was administered to the culture solution. […] The surviving cells (5×10^3 cells) were seeded on a 96-well plate. In the present example, these cells surviving 72 hours after administration of the anticancer agent were used as therapy-resistant cancer.
Twenty-four hours after the seeding of the surviving cells on the 96-well plate, 5-aminolevulinic acid hydrochloride (ALA) was administered to the cells, and the resulting cells were then cultured for 4 hours. Thereafter, 631-nm LED light was applied to the cells to a total dose of 60 J/cm^2, one to three times. In the case of multiple-dose light irradiation, the interval between light irradiations was set at 2 hours. Twenty-four hours after the light irradiation, the resulting cells were washed with PBS twice, and the cell viability was then measured by the WST8 assay.
The longitudinal axis in each figure indicates the percentage of cell viability in the experiment groups, while the cell viability is set at 100% when the experiment was carried out under the same conditions as those described above with the exception that ALA was not administered.

[5] = metabolized in a living body; cited from earlier work
[6] = tested on: Human glioblastoma astrocytoma U87MG cells; experiment: Intracellular accumulation of PpIX biosynthesized from ALA (FACS fluorescence); assay type: cell-based; conditions: 4 hours; for fluorescence intensity / intracellular accumulation of PpIX: 2 mM ALA with inhibitor 1 nM to 100 μM
Method: Human glioblastoma astrocytoma U87MG cells were cultured together with 2 mM ALA and Lapatinib in various concentrations for 4 hours, and thereafter, the fluorescence intensity (MFI value) of PpIX, which was biosynthesized from ALA and was accumulated in the cells during the culture, was measured using FACS (Beckman Coulter). Specific experimental procedures are as follows.
U87MG cells were washed with PBS twice, and were then peeled using Trypsin-EDTA. 10^6 cells were suspended in a low-serum DMEM medium (2% FBS). Subsequently, 2 mM ALA alone was added to the suspension, or 2 mM ALA was combined with Lapatinib or Gefitinib in a concentration from 1 nM to 100 μM, and the combination was then added to the suspension. Thereafter, the obtained mixture was cultured at 37° C. for 4 hours. After completion of the culture, the cultured cells were washed with cold PBS (2% FBS), and were then suspended again in cold PBS (2% FBS). Thereafter, intracellular fluorescence intensity was measured using FACS (Beckman Coulter). 50,000 cells were measured for a single measurement. PpIX accumulated in the cells was excited with UV laser (325 nm), the fluorescence at 575 nm was then detected, and the mean fluorescence intensity (MFI) of the fluorescence of the measured cells was then calculated. Based on the obtained results, intracellular accumulation of PpIX was relatively calculated, and inhibition of the PpIX transport of ABCG2 by Lapatinib or Gefitinib was estimated.

ABCG2 [7] = molecular target: T1, ABCG2 (Homo sapiens, UniProt Q9UNQ0); conditions: from earlier publication (Pharm Res. 26(2), 449-458, 2009); cited from earlier work
T1 sequence (Q9UNQ0 1-655): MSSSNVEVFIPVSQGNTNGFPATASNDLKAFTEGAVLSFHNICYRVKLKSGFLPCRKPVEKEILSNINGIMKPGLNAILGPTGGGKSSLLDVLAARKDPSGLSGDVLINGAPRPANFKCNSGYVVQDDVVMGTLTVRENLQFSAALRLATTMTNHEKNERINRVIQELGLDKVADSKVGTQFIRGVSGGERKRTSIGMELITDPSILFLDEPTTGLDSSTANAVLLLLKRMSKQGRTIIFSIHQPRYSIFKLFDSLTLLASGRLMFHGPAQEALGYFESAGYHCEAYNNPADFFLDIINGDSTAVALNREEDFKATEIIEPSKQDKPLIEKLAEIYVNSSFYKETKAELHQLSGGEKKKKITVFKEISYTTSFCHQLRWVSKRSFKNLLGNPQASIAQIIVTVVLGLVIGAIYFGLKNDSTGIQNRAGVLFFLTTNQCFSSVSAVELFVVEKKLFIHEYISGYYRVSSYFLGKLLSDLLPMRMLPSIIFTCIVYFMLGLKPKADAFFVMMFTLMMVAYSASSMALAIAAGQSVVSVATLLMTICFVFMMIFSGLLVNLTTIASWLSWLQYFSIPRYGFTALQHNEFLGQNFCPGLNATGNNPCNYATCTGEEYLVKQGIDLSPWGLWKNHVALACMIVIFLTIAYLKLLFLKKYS

ABCG2 [8] = molecular target: T1, ABCG2; experiment: Inhibition of transport function of ABCG2 (Hoechst 33342 excretion, Flp-In-293/ABCG2 cells, FACS); assay type: cell-based; set-up: expressed in transfected cells; host or cells: Flp-In-293 cells (Flp-In-293/ABCG2), with Flp-In-293/Mock as control; conditions: inhibitor 1 nM to 100 μM, 5 μg/mL Hoechst 33342, 90 minutes
Method: In the present experiment, using Hoechst 33342 and a plurality of tyrosine kinase inhibitors, an experiment was carried out to screen for an inhibitor of ABCG2.
Specifically, using Erlotinib, Gefitinib, Lapatinib, Imatinib, Nilotinib and Dasatinib as tyrosine kinase inhibitors, and also using an L-type calcium channel inhibitor, Verapamil, as a control, screening was carried out for inhibition of the transport function of ABCG2.
Flp-In-293 cells (Flp-In-293/ABCG2 cells), which express human ABCG2, were cultured together with Hoechst 33342 as a substrate of ABCG2 and the aforementioned tyrosine kinase inhibitors for a certain period of time. Thereafter, the level of Hoechst 33342 accumulated in individual cells was measured using FACS (Beckman Coulter). […] Specific experimental procedures are as follows.
Flp-In-293/Mock and Flp-In-293/ABCG2 were each washed with PBS (phosphate buffered saline) twice, and were then peeled using Trypsin-EDTA. 10^6 cells were suspended in a DMEM medium (2% FBS). Subsequently, 5 μg/mL Hoechst 33342 (Invitrogen) alone was added to the suspension, or 5 μg/mL Hoechst 33342 was combined with various types of inhibitors in concentrations of 1 nM to 100 μM, and the combination was then added to the suspension. The obtained mixture was cultured at 37° C. for 90 minutes. After completion of the culture, the cultured cells were washed with cold PBS (2% FBS), and were then suspended again in cold PBS (2% FBS). Thereafter, intracellular fluorescence intensity was measured using FACS (Beckman Coulter). 50,000 cells were measured for a single measurement. Hoechst 33342 accumulated in the cells was excited with UV laser, the fluorescence at […] was then detected, and the mean fluorescence intensity (MFI) of the fluorescence of the measured cells was then calculated. Based on the obtained results, the inhibitory percentage against ABCG2 was calculated.
The MFI values of Flp-In-293/Mock cells and Flp-In-293/ABCG2 cells upon addition of Hoechst 33342 alone were set at 100% and 0%, respectively. […]

## NCC(=O)CCC(=O)O [ALA, 5-aminolevulinic acid]
157NS cells
  ALA-PDT sensitivity: 1.8
MD13 cells
  ALA-PDT sensitivity: 2.4
MD30 cells
  ALA-PDT sensitivity: 1.9
[1]
  sensitivity to ALA-PDT of sphere type cells relative to non-sphere type cells: 2 times
[2]
  photosensitivity to ALA-PDT of sphere type versus non-sphere type cells (cell viability): higher photosensitivity than the non-sphere type cells
[3]
  photosensitivity to ALA-PDT of sphere type versus non-sphere type cells (colony-forming ability): significantly higher photosensitivity than the non-sphere type cells
[4]; 10 mM ALA alone 4 hours
  cells died: approximately 50%
HeLa cells; 125 to 250 μM ALA, 631-nm LED total 60 J/cm^2 in one to three irradiations
  cell viability in relation to the number of light irradiations: decreased depending on the number of light irradiations
HeLa cells; HeLa with no anticancer agent or surviving Adriamycin, Cisplatin, Etoposide or 5-Fluorouracil, 631-nm LED total 60 J/cm^2, 24 hours after
  ALA concentration at which the cell viability was decreased: ≥ 125 µM
[5]
  time until ALA is excreted from the body: ≤ 48 h

## COc1cc2ncnc(Nc3ccc(F)c(Cl)c3)c2cc1OCCCN1CCOCC1 [Gefitinib, N-(3-chloro-4-fluoro-phenyl)-7-methoxy-6-(3-morpholin-4-ylpropoxy)quinazolin-4-amine]
[6]
  fluorescence intensity / intracellular accumulation of PpIX: intracellular accumulation of PpIX was observed, but the amount of PpIX accumulated was not as large as that in the case of inhibition by Lapatinib
ABCG2 [7]
  inhibition of ABCG2: effectively inhibits ABCG2
ABCG2 [8]
  inhibition of ABCG2 (inhibition of the excretion of Hoechst 33342), comparison among inhibitors: ABCG2-inhibitory ability almost equivalent to each other; also recorded: weaker than that of Lapatinib

## CS(=O)(=O)CCNCc1ccc(-c2ccc3ncnc(Nc4ccc(OCc5cccc(F)c5)c(Cl)c4)c3c2)o1 [Lapatinib, n-[3-chloro-4-[(3-fluorophenyl)methoxy]phenyl]-6-[5-[(2-methylsulfonylethylamino)methyl]-2-furyl]quinazolin-4-amine]
[6]
  fluorescence intensity / intracellular accumulation of PpIX: increased
[6]; 2 mM ALA
  concentration region in which ABCG2 was significantly inhibited: ≥ 10 nM
[4]; 10 mM ALA with Lapatinib 1 nM to 300 μM
  sensitivity of the cells to LED irradiation: increased in a concentration-dependent manner
ABCG2 [8]
  inhibition of ABCG2 (inhibition of the excretion of Hoechst 33342), comparison among inhibitors: inhibits ABCG2 most strongly

## C#Cc1cccc(Nc2ncnc3cc(OCCOC)c(OCCOC)cc23)c1 [Erlotinib, N-(3-ethynylphenyl)-6,7-bis(2-methoxyethoxy)-4-quinazolinamine]
ABCG2 [8]
  inhibition of ABCG2 (inhibition of the excretion of Hoechst 33342), comparison among inhibitors: ABCG2-inhibitory ability almost equivalent to each other
